Test results reported in ChEMBL document CHEMBL4190187, “Discovery of pyrazolopyrimidine derivatives as novel inhibitors of ataxia telangiectasia and rad3 related protein (ATR)” (Bioorg Med Chem Lett, 2017).

Assays:
[1] = system: Tyrosine-protein kinase ABL1 (Homo sapiens), P00519 [Y253F]; test: Inhibition of recombinant human Abl Y253F mutant (27 to end residues) at 1 uM using EAIYAAPFAKKK as substrate after 40 mins in presence of [gamma-33P]ATP by scintillation counting method
[2] = target: Tyrosine-protein kinase ABL1 (Homo sapiens) (UniProt P00519); test: Inhibition of recombinant full-length human Abl at 1 uM using EAIYAAPFAKKK as substrate after 40 mins in presence of [gamma-33P]ATP by scintillation counting method
[3] = target: CDK18/Cyclin Y (Homo sapiens) (UniProt Q07002+Q8ND76); test: Inhibition of recombinant full-length human CDK18/Cyclin Y at 1 uM using YRRAAVPPSPSLSRHSSPHQS(p)EDEEE as substrate after 40 mins in presence of [gamma-33P]ATP by scintillation counting method; type: protein-complex assay
[4] = target: Casein kinase I isoform delta (Homo sapiens) (UniProt P48730); test: Inhibition of recombinant human CK1delta (1 to 294 residues) at 1 uM using KRRRALS(p)VASLPGL as substrate after 40 mins in presence of [gamma-33P]ATP by scintillation counting method
Casein kinase I isoform delta (Homo sapiens), sequence (P48730 whole entry, looked up, the tested form may be a part, canonical isoform): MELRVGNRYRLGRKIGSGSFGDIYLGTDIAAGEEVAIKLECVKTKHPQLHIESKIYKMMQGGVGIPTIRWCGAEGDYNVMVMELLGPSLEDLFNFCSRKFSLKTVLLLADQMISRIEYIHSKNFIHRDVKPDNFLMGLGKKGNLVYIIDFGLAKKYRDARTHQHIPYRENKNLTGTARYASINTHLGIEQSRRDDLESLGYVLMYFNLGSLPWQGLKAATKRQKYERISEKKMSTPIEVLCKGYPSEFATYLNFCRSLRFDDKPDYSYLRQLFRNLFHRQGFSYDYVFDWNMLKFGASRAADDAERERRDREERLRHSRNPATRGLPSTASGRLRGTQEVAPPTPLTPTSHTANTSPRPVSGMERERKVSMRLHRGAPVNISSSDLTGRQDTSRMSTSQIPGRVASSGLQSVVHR

[5] = system: Mast/stem cell growth factor receptor Kit (Homo sapiens), P10721 [V654A]; test: Inhibition of recombinant human cKit V654A mutant (544 to end residues) at 1 uM using GGMEDIYFEFMGGKKK as substrate after 40 mins in presence of [gamma-33P]ATP by scintillation counting method
[6] = target: Dual specificity protein kinase CLK1 (Homo sapiens) (UniProt P49759); test: Inhibition of recombinant human CLK1 (130 to end residues) at 1 uM using ERMRPRKRQGSVRRRV as substrate after 40 mins in presence of [gamma-33P]ATP by scintillation counting method
[7] = target: Ephrin type-A receptor 2 (Homo sapiens) (UniProt P29317); test: Inhibition of recombinant human EPHA2 (596 to 900 residues) at 1 uM using poly(Glu,Tyr) 4:1 as substrate after 40 mins in presence of [gamma-33P]ATP by scintillation counting method
Ephrin type-A receptor 2 (Homo sapiens), sequence (P29317 whole entry, the tested form may be a part): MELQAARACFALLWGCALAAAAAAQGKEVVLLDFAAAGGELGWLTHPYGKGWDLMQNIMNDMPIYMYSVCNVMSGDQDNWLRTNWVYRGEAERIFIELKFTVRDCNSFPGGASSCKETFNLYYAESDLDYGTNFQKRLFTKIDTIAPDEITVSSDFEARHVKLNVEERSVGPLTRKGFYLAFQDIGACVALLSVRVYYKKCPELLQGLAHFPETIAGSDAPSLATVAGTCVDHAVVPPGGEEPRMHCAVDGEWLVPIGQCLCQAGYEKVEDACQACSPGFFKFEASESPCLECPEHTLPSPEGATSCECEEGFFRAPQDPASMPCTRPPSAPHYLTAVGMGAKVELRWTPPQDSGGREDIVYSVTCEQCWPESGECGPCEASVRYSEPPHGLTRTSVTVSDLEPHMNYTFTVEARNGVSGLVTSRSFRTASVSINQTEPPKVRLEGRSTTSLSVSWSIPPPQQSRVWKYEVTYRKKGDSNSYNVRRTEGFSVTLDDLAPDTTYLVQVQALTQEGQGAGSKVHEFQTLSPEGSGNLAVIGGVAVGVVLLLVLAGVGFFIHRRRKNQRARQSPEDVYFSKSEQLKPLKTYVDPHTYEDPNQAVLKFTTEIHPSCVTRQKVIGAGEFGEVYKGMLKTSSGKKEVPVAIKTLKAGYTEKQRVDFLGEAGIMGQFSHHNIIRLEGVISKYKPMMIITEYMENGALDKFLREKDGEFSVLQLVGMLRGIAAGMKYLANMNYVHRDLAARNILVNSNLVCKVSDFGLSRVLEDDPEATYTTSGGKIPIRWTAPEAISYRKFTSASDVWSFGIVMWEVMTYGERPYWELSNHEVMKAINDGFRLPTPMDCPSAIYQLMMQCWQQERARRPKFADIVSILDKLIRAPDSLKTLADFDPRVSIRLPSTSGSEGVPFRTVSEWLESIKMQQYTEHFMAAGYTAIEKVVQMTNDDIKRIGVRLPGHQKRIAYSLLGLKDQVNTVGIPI

[8] = target: Homeodomain-interacting protein kinase 3 (Homo sapiens) (UniProt Q9H422); test: Inhibition of recombinant human HIPK3 (161 to 562 residues) at 1 uM using myelin basic protein as substrate after 40 mins in presence of [gamma-33P]ATP by scintillation counting method
[9] = target: Mitogen-activated protein kinase kinase kinase kinase 1 (Homo sapiens) (UniProt Q92918); test: Inhibition of recombinant human HPK1 (1 to 346 residues) at 1 uM using myelin basic protein as substrate after 40 mins in presence of [gamma-33P]ATP by scintillation counting method
Mitogen-activated protein kinase kinase kinase kinase 1 (Homo sapiens), sequence (Q92918 whole entry, looked up, the tested form may be a part): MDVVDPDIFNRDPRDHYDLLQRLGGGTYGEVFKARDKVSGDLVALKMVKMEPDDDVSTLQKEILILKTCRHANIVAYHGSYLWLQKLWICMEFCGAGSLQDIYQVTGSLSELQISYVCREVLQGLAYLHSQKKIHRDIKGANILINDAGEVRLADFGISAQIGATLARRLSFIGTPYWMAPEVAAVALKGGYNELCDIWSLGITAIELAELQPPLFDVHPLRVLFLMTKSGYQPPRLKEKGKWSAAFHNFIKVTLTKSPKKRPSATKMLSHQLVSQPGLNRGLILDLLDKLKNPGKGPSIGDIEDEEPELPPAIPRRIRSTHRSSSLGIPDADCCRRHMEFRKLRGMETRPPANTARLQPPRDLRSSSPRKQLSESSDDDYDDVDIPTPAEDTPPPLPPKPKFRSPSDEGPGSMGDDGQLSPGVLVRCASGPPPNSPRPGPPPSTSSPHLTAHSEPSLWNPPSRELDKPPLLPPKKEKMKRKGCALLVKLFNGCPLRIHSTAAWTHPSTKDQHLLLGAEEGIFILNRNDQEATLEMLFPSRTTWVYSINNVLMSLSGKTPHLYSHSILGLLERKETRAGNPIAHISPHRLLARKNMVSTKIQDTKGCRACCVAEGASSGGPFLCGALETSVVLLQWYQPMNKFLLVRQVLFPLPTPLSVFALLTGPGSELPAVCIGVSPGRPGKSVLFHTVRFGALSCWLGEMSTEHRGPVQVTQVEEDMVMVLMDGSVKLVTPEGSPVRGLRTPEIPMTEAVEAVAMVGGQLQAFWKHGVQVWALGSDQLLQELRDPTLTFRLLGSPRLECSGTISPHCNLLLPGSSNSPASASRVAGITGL

[10] = target: Dual specificity mitogen-activated protein kinase kinase 6 (Homo sapiens) (UniProt P52564); test: Inhibition of recombinant human MKK6 (4 to end residues) at 1 uM using inactive SAPK2a as substrate after 40 mins in presence of [gamma-33P]ATP by scintillation counting method
Dual specificity mitogen-activated protein kinase kinase 6 (Homo sapiens), sequence (P52564 whole entry, the tested form may be a part): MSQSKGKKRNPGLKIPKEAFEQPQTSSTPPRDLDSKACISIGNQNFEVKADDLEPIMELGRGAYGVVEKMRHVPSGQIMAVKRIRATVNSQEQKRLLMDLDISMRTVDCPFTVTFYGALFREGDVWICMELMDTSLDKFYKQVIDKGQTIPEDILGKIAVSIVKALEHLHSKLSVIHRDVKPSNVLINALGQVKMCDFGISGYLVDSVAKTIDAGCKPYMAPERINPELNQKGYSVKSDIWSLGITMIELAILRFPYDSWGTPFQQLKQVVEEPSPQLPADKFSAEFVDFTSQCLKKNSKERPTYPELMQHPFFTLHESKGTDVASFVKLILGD

[11] = target: Mitogen-activated protein kinase kinase kinase 10 (Homo sapiens) (UniProt Q02779); test: Inhibition of recombinant human MLK2 (1 to 449 residues) at 1 uM using myelin basic protein as substrate after 40 mins in presence of [gamma-33P]ATP by scintillation counting method
Mitogen-activated protein kinase kinase kinase 10 (Homo sapiens), sequence (Q02779 whole entry, looked up, the tested form may be a part): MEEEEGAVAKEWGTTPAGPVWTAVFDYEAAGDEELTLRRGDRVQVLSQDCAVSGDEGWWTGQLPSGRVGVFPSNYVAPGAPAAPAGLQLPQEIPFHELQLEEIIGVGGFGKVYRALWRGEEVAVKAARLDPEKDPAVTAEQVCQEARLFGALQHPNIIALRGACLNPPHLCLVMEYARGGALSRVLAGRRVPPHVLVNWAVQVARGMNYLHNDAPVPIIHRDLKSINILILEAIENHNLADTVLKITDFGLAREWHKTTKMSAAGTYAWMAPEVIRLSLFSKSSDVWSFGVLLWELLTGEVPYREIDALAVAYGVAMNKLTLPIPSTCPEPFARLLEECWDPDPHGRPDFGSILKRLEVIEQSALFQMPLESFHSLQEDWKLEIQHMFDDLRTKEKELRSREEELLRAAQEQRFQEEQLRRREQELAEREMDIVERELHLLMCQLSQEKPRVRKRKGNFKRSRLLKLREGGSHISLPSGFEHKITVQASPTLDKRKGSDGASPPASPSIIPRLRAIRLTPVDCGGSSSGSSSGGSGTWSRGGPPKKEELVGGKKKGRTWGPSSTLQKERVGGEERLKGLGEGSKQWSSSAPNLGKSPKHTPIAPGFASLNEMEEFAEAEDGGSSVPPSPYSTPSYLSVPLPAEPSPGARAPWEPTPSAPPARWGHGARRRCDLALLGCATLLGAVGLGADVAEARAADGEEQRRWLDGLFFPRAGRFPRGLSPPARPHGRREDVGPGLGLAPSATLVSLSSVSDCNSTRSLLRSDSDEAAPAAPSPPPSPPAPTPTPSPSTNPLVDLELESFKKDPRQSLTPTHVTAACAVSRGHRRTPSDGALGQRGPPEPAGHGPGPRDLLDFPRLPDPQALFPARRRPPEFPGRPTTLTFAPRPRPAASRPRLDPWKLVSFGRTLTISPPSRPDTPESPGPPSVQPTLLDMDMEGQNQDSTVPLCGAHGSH

[12] = target: Serine/threonine-protein kinase Nek3 (Homo sapiens) (UniProt P51956); test: Inhibition of recombinant full-length human NEK3 at 1 uM using myelin basic protein as substrate after 40 mins in presence of [gamma-33P]ATP by scintillation counting method
[13] = target: PAS domain-containing serine/threonine-protein kinase (Homo sapiens) (UniProt Q96RG2); test: Inhibition of recombinant human PASK (995 to end residues) at 1 uM using KKLNRTLSFAEPG as substrate after 40 mins in presence of [gamma-33P]ATP by scintillation counting method
[14] = system: PI3-kinase p110-alpha/p85-alpha (Homo sapiens), P27986+P42336 [H1047R]; test: Inhibition of recombinant full-length human p110a H1047R mutant/p85a at 1 uM using phosphatidylinositol 4,5-bisphosphate as substrate after 40 mins in presence of [gamma-33P]ATP by scintillation counting method; type: protein-complex assay
[15] = target: Phosphatidylinositol 5-phosphate 4-kinase type-2 alpha (Homo sapiens) (UniProt P48426); test: Inhibition of recombinant full-length human PIP4K2alpha at 1 uM using phosphatidylinositol 5-phosphate/phosphatidylserine as substrate after 40 mins in presence of [gamma-33P]ATP by scintillation counting method
[16] = target: Protein kinase C zeta type (Homo sapiens) (UniProt Q05513); test: Inhibition of recombinant human PKCzeta (2 to end residues) at 1 uM using ERMRPRKRQGSVRRRV as substrate after 40 mins in presence of [gamma-33P]ATP by scintillation counting method
[17] = target: Tyrosine-protein kinase FRK (Homo sapiens) (UniProt P42685); test: Inhibition of recombinant human PTK5 (218 to end residues) at 1 uM using GGEEEEYFELVKKKK as substrate after 40 mins in presence of [gamma-33P]ATP by scintillation counting method
Tyrosine-protein kinase FRK (Homo sapiens), sequence (P42685 whole entry): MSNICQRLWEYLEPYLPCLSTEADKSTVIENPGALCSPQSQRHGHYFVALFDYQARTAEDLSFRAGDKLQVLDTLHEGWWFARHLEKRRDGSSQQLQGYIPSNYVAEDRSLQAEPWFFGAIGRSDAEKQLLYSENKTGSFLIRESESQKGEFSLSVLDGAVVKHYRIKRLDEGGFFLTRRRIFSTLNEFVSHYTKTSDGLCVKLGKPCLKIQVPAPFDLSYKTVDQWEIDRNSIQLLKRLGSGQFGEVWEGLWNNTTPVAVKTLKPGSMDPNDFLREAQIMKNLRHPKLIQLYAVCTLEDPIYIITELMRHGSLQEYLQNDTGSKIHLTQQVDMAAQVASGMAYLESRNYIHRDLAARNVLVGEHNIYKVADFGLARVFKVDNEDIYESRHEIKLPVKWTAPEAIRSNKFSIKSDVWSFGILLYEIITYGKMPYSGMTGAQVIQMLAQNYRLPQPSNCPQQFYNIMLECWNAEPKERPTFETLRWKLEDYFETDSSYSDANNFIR

[18] = target: Protein-tyrosine kinase 2-beta (Homo sapiens) (UniProt Q14289); test: Inhibition of recombinant full-length human Pyk2 at 1 uM using poly(Glu,Tyr) 4:1 as substrate after 40 mins in presence of [gamma-33P]ATP by scintillation counting method
[19] = target: Tyrosine-protein kinase receptor TYRO3 (Homo sapiens) (UniProt Q06418); test: Inhibition of recombinant human Rse (451 to end residues) at 1 uM using KVEKIGEGTYGVVYK as substrate after 40 mins in presence of [gamma-33P]ATP by scintillation counting method
[20] = target: Mitogen-activated protein kinase 14 (Homo sapiens) (UniProt Q16539); test: Inhibition of recombinant full-length human SAPK2a at 1 uM using myelin basic protein as substrate after 40 mins in presence of [gamma-33P]ATP by scintillation counting method
Mitogen-activated protein kinase 14 (Homo sapiens), sequence (Q16539 whole entry): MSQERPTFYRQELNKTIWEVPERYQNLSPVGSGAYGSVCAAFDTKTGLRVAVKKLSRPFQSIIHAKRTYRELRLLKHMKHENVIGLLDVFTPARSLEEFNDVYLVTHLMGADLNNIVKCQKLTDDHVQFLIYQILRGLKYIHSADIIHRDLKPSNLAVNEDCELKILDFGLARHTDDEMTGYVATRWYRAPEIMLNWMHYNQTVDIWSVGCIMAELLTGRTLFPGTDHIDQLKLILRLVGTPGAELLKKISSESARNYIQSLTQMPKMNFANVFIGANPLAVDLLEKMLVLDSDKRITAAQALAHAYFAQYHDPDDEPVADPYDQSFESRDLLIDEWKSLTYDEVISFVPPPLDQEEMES

[21] = target: SRSF protein kinase 1 (Homo sapiens) (UniProt Q96SB4); test: Inhibition of recombinant human SRPK1 (2 to end residues) at 1 uM using RSRSRSRSRSRSRSR as substrate after 40 mins in presence of [gamma-33P]ATP by scintillation counting method
SRSF protein kinase 1 (Homo sapiens), sequence (Q96SB4 whole entry): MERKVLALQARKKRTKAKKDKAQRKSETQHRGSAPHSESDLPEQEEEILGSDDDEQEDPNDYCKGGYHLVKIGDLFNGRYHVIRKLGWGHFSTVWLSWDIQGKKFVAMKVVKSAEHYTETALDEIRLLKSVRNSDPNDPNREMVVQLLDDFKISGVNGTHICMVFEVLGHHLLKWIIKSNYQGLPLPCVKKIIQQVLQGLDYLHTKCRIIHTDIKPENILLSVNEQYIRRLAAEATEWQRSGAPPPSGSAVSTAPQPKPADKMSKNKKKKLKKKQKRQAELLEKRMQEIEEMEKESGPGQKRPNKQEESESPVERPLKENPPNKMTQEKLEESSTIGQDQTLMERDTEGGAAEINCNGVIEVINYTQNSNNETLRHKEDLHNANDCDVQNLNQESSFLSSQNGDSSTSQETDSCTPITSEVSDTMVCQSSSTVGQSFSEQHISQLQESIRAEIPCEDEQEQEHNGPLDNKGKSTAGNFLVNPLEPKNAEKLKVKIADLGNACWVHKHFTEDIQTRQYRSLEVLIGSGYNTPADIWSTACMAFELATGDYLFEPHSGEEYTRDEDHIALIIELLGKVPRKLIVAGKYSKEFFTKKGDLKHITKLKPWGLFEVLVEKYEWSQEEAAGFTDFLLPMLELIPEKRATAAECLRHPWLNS

[22] = target: BDNF/NT-3 growth factors receptor (Homo sapiens) (UniProt Q16620); test: Inhibition of recombinant human TrkB (455 to end residues) at 1 uM using poly(Glu,Tyr) 4:1 as substrate after 40 mins in presence of [gamma-33P]ATP by scintillation counting method
[23] = target: Testis-specific serine/threonine-protein kinase 4 (Homo sapiens) (UniProt Q6SA08); test: Inhibition of recombinant full-length human TSSK4 at 1 uM using KKLNRTLSFAEPG as substrate after 40 mins in presence of [gamma-33P]ATP by scintillation counting method

`CS(=O)(=O)c1ccc(-n2nc(-c3cnc4[nH]ccc4c3)c3c(N)ncnc32)cc1` was tested, and the inhibition [1] was 85%, the inhibition [2] was 66% and the inhibition [3] was 0%. It also gave an inhibition [4] of 66%, an inhibition [5] of 30% and an inhibition [6] of 10%. The inhibition [7] was 9%, the inhibition [8] was 4% and the inhibition [9] was 2%. The inhibition [10] was 1%, the inhibition [11] was -1% and the inhibition [12] was -7%. For the same molecule, the inhibition [13] was -6%, the inhibition [14] was 16% and the inhibition [15] was -2%. It also gave an inhibition [16] of 3%, an inhibition [17] of 94% and an inhibition [18] of 25%. The inhibition [19] was 4%, the inhibition [20] was -5% and the inhibition [21] was 1%. For the same molecule, the inhibition [22] was 4% and the inhibition [23] was -10%.
